Entries after “also recorded” stand apart in the source; their conditions may differ. Marks after values point to notes of the source that are not given here.
Experiments:
[1] = Blood levels of (3R)-hydroxybutyrate after oral ingestion; format: in vivo; conditions: ingested orally
[2] = In vivo testing, calorie-controlled diets, 66 days (Example 2); design: species or system Wistar rats
Method: Young adult male Wistar rats (starting weight 70 g) (Harlan UK Limited) (n=50) were housed at approximately 20° C. on a 12h:12h reverse light:dark photoperiod. Rats were fed standard laboratory chow (Chow) (SDS, Essex, UK) prior to the starting the experimental diets: (a) normal “Western” diet (Western) in which 34% of kilocalories came from added palmitate (n=20), (b) high-carbohydrate (CHO) in which 70% of kilocalories came from added corn starch (n=10) or (c) (3R)-hydroxybutyl (3R)-hydroxybutyrate diet (monoester) in which 30% of kilocalories came from (3R)-hydroxybutyl (3R)-hydroxybutyrate (n=20). The macronutrient compositions of the three diets are shown below. All diets contained the same energy in kCal/g but had different macronutrients. Rats were individually housed one week prior to the start of the experiments, so that they were accustomed to living in a solitary environment by the time the study started. They consumed standard laboratory chow ad libitum until they were placed on their experimental diet. Rats fed the Western and carbohydrate diets were fed the same number of calories as those consumed by the monoester-fed rats the previous day. All rats were fed for 66 days. After this period the rat body, heart and fat pad weights were determined.

[3] = tested on: free nucleotide ratios and concentrations in the brain; test: Calculated free nucleotide ratios and concentrations in freeze blown brain after 14 days of diet; format: in vivo, Wistar rats
Method: (§1) In a 14-day study, Wistar rats weighing about 250 g were randomized to one of three diet groups (n=6 rats/group) and administered either a carbohydrate (“starch”) diet, a normal human (“fat”) diet or a ketone ester diet, in which the ketone ester used was the ketone monoester (3R)-hydroxybutyl (3R)-hydroxybutyrate diet (i.e. the compound of the invention). The three diets were eaten in pair fed meals for 3 hours per day. The composition of the diets expressed in terms of g/100 g are summarised in Table 5 and the compositions expressed in terms of % of calories are summarised in Table 6.
After the rats were fed on the diets for 14 days, the ratios of free nucleotide and the free nucleotide concentrations were determined. Measurements were performed on the freeze blown brain and metabolite ratios of the rats calculated as previously described (Veech, R. L. et al, J. Biol. Chem. 254:6538-47, 1979). The values in Table 8 are given as means±SEM (n=6 to 8). Cytosolic pH was assumed to be 7.2.

[4] = 14-day pair fed meal diets: food consumption and weight gain (Example 5); format: in vivo, Wistar rats; conditions: rats, 14-day study
Method: as §1

[5] = In vivo testing, meal-fed diets (Example 3); conditions: meal-fed rats, n=8 per group
From the text: Example 2 was repeated using the same foods as shown in Table 1 but where the rats were meal-fed. […] The daily body weight (in grams per rat per day) was plotted against time for rats in each of the three diet groups over the first six days of the test. One-way analysis of variance with Tukey-Kramer multiple comparison test was used (n=8 per group, **p<0.001). […] The body weight of rats in the group fed the carbohydrate diet remained high throughout the feeding process. […] The daily food intake (in grams per rat per day) was plotted against time for rats in each of the three diet groups over the first seven days of the test. Again, one-way analysis of variance with Tukey-Kramer multiple comparison test was used (n=8 per group, ***p<0.001).

[6] = tested on: Brain Derived Neurotropic Factor (BDNF); test: Neuropeptide levels in sectioned rat brain by antibody techniques: BDNF; format: in vivo; conditions: rat hypothalamus, ketone diet
Method: (§2) In a 14-day study, Wistar rats weighing about 250 g were randomized to one of three diet groups (n=6 rats/group) and administered either a carbohydrate (“starch”) diet, a normal human (“fat”) diet or a ketone ester diet, in which the ketone ester used was the ketone monoester (3R)-hydroxybutyl (3R)-hydroxybutyrate diet (i.e. the compound of the invention). The three diets were eaten in pair fed meals for 3 hours per day. The composition of the diets expressed in terms of g/100 g are summarised in Table 5 and the compositions expressed in terms of % of calories are summarised in Table 6. After 14 days of feeding with the fat, carbohydrate or ketone ester diet, the levels of various neuropeptides known to be associated with decreased food intake and decreased appetite (“anorexigenic” peptides) were surveyed in the paraventricular nucleus (PVN) area of the hypothalamus and in the hippocampus of the rat brain. The neuropeptide levels were measured using standard antibody techniques performed on sectioned brains of the rats. The results are shown in the micrographs of FIGS. 3 to 9. The peptides measured were Brain Derived Neurotropic Factor (BDNF), melanocyte-stimulating hormone receptor 4 (MC4R), and Cocaine-and-Amphetamine Responsive Transcript (CART). […]

[7] = tested on: melanocyte-stimulating hormone receptor 4 (MC4R); test: Neuropeptide levels in sectioned rat brain by antibody techniques: MC4R; format: in vivo; conditions: rat hypothalamus, 14 days ketone diet
Method: as §2

[8] = tested on: Cocaine-and-Amphetamine Responsive Transcript (CART); test: Neuropeptide levels in sectioned rat brain by antibody techniques: CART; format: in vivo; conditions: 14 days ketone diet
Method: as §2

[9] = tested on: Krebs cycle and CoA intermediates in the brain; test: Brain Krebs cycle and CoA intermediates after 14 days of diet; format: in vivo, Wistar rats; conditions: rat brain
Method: In a 14-day study, Wistar rats weighing about 250 g were randomized to one of three diet groups (n=6 rats/group) and administered either a carbohydrate (“starch”) diet, a normal human (“fat”) diet or a ketone ester diet, in which the ketone ester used was the ketone monoester (3R)-hydroxybutyl (3R)-hydroxybutyrate diet (i.e. the compound of the invention). The three diets were eaten in pair fed meals for 3 hours per day. The composition of the diets expressed in terms of g/100 g are summarised in Table 5 and the compositions expressed in terms of % of calories are summarised in Table 6. After eating the 3 diets in pair fed meals for 3 hours per day for 14 days, the levels of various Krebs cycle and CoA intermediates in the brain were measured enzymatically and by mass spectrometry using standard techniques. […] Malonyl CoA is a metabolite known to be associated with decreased food intake; it is known to decrease appetite (Wolfgang, M. J. and Lane, M. D. (2006) J. Biol. Chem. 281, 37265-37269). […] The values in Table 7 are means, in μmoles/g wet weight, ±SEM with n=6 to 8. CoA's are given in nmol/g wet weight.

[10] = 28-day study, isonitrogenous and isocaloric diets (Example 4); format: in vivo, Wistar rats; conditions: for total amount of weight gained compared with CHOD and NHD groups: 28-day study; for feed intake during days 22 to 29: KD; for body weight on day 28: KD group
From the text: In a 28-day study, male and female Wistar rats weighing approximately 350 g were randomized to one of three diet groups (n=10 males and 10 females/group) and administered either a carbohydrate diet (CHOD), a normal human diet (NHD), or a ketone diet (KD). The diets were isonitrogenous and isocaloric, differing only in their relative amounts of carbohydrate, fat, and ketones. In the KD, the ketone used was the ketone monoester (3R)-hydroxybutyl (3R)-hydroxybutyrate diet (i.e. the compound of the invention). In the KD, approximately ⅓ of the energy was derived from the ketone ester, while in the NHD and CHOD, ⅓ of the energy was derived from palmitate and starch, respectively.

[11] = rats, monoester diet, 66 days, n = 20
[12] = rat brain, 14 days ketone ester diet, mean ± SEM
[13] = rat brain, 14 days ketone ester diet, mean ± SEM, p < 0.05 vs starch and vs fat
[14] = 14 days ketone ester diet, mean ± SEM

Structure (SMILES): C[C@@H](O)CCOC(=O)C[C@@H](C)O [Monoester, (3R)-hydroxybutyl (3R)-hydroxybutyrate]
- blood levels of (3R)-hydroxybutyrate [1]: measurably raised
- fat pad weight compared with Western or carbohydrate diet ([2]; end of the 66-day test): significantly lower
- fat to body weight compared with other diets ([2]; end of the 66-day test): significantly lower
- Final body weight ([2]; rats, monoester diet (30% of kilocalories), calorie-controlled, 66 days, n = 20): 213 ± 5 g
- Heart to body weight [2, 11]: 0.29 ± 0.01%
- Heart weight [2, 11]: 0.64 ± 0.02 g
- Epididymal fat ([2]; rats, monoester diet, 66 days, n = 20, *P < 0.05): 1.48 ± 0.2* g
- Epididymal fat to body weight ([2]; rats, monoester diet, 66 days, n = 20, *P < 0.05, in % (unit assumed)): 0.69 ± 0.1*
- brain phosphorylation potential compared with carbohydrate and fat diets ([3]; after 14 days of diet): significantly higher
- ΔG′ of ATP hydrolysis compared with carbohydrate and fat diets ([3]; after 14 days of diet): significantly higher
- EhCoQ/CoQH2 from Fum/Succ [3, 12]: 28.9 ± 0.6 mV
- Free [ADP] cytosol from PCr/Cr [3, 12]: 0.027 ± 0.001 µM/g
- Free [AMP] cytosol from Kmyokinase [3, 12]: 0.0004 ± 0.00003 µM/g
- Free [Mg^2+] from [Cit]/[Isocit] [3, 12]: 1.5 ± 0.13 mM
- Free [NAD^+]/[NADH] mitochochondria from αKGxNH4^+/Glut [3, 12]: 0.80 ± 0.17
- Free [NAD^+]/[NADPH] cytosol from αKGxCO2/IsoCit [3, 12]: 0.026 ± 0.003
- Free [NAD^+]/[NADH] cytosol from Lactate/Pyruvate ([3]; rat brain, 14 days ketone ester diet, mean ± SEM, cytosolic pH assumed 7.2): 357 ± 27
- Phosphorylation Potential from Kg + g (Eqn 1) [3, 13]: 38,100 ± 3,390 ^a, b M^−1
- ΔG′ ATP [3, 13]: −59.6 ± 0.2 ^a, b kJ/mol
- food consumption compared with starch or fat diets [4]: consume less food
- weight gain compared with starch or fat diets [4]: gain less weight
- daily food intake compared with carbohydrate and Western diets (FIG. 2) ([5]; first seven days): ate less food; also recorded: consistently reduced
- daily body weight compared with carbohydrate and Western diets (FIG. 1) ([5]; first six days): Significantly reduced; also recorded: lost more weight
- BDNF-positive cell bodies in the paraventricular nucleus (PVN), compared to fat and carbohydrate diets (FIG. 3) [6]: significantly more; also recorded: more BDNF; also recorded: significantly greater number
- MC4R positive cell bodies in pm and mpd regions of the PVN, compared to fat diet (FIGS. 4 and 5) [7]: significantly higher density; also recorded: more MC4R activity; also recorded: Significantly greater numbers; also recorded: significantly denser area
- CART-positive cell bodies in VMH, ARC and ME areas of the hypothalamus (FIG. 7) [8]: highest numbers
- CART positive cell bodies in the PVN, compared to fat and carbohydrate diets (FIGS. 6, 8, 9) ([8]; rat hypothalamus): highest level; also recorded: more CART; also recorded: significantly greater number; also recorded: highest density
- malonyl CoA levels in the brain compared with other diets ([9]; 14 days): higher
- Acetyl CoA [9, 14]: 6.43 ± 0.53 µM
- Fumarate [9, 14]: 0.0745 ± 0.0058 μmoles/g wet weight
- Isocitrate [9, 14]: 0.0093 ± 0.008 μmoles/g wet weight
- L-Malate [9, 14]: 0.181 ± 0.013 μmoles/g wet weight
- Succinate [9, 14]: 0.0864 ± 0.0033 μmoles/g wet weight
- Succinyl CoA [9, 14]: 0.910 ± 0.207 µM
- α-ketoglutarate [9, 14]: 0.140 ± 0.008 μmoles/g wet weight
- Calc Oxaloacetate ([9]; 14 days ketone ester diet, mean ± SEM, calculated): 0.0026 ± 0.0004 μmoles/g wet weight
- Citrate ([9]; 14 days ketone ester diet, mean ± SEM, n=6 to 8): 0.222 ± 0.010 μmoles/g wet weight
- Malonyl CoA ([9]; 14 days ketone ester diet, mean ± SEM, p < 0.05 between ketone ester and starch): 1.26 ± 0.13 ^a μM
- total amount of weight gained compared with CHOD and NHD groups ([10]; female rats): significantly less
- feed intake during days 22 to 29 ([10]; female rats): 175 ± 12 g
- body weight on day 28 ([10]; female rats): 240 ± 13 g
- total amount of weight gained compared with CHOD and NHD groups ([10]; male rats): significantly less
- feed intake during days 22 to 29 ([10]; male rats): 239 ± 17 g
- body weight on day 28 ([10]; male rats): 390 ± 26 g
